Test results: US4371673A, “Water soluble forms of retinoids” (The United States of America as represented by the …, priority 1980, dated 1983)
In brackets after ≈: the same amount, converted by molar mass. Several values for one entry are separate records, joined by “and”; a condition that tells them apart may be missing. Identical values can stand only once. Like-named read-outs stand apart in the source and are kept apart here.

Assays:
vitamin A-deficient rats [1] = assay: Vitamin A-like activity measured by survival of rats fed vitamin A-deficient diet; assay type: in vivo, rat (male weanling albino, Holtzman); settings: for No. of surviving animals/total: 100 μg retinal equivalent for complex
Procedure: Studies were undertaken to determine whether the chemical modification of retinoids to polymer-linked water soluble forms alter its biological activities. Specifically, the vitamin A-like activity of the mixed α-, β-dextrin complex of retinal-carboxymethyldextran hydrazone was tested on rats made vitamin A-deficient. The "animals" referred to herein should be construed as meaning rats.
To prepare the rats for dietary studies, male weanling albino rats of the Holtzman string were fed a vitamin A-deficient diet until a weight plateau was reached. A cyclic program was then begun in which the rats which were provided with the deficient diet were supplemented with retinoic acid at a rate of 2 μg per g. This was continued for 18 days followed by 10 days of the original deficient diet. At the termination of the fourth 18-day period in which the rats were fed the retinoic acid supplemented diet, the rats were fed for 7 days with the deficient diet and then used in two types of experiments: (a) Studies of the resorption of retinal-carboxymethyldextran hydrazone from the gastrointestinal tract and (b) studies of growth support for avitamineosis. The results of the resorption studies (a) were determined by spectrophotometrically analyzing for retinol in the serum or liver. The vitamin A-like activity of the complexes of the present invention (b) was evaluated by comparison of survival rates of a control group, those fed a cyclodextrin complex of a retinoid-polymer and those fed a free retinoid derivative.
^a The control rats received 0.2 mL of cottonseed oil
intraperitoneally while the treated animals received […] of retinyl
acetate or retinoic acid in 0.2 mL cottonseed oil or retinaldextran
complex (100 μg of retinal equivalent) in 0.2 mL water. Subsequently,
the rats received a vitamin Adeficient diet for periods indicated in the
Table and their survival was followed.
In the second series of experiments, compared in Table 2, the retinal-carboxymethyldextran complex was administered intraperitoneally and the survival of the vitamin A-deficient rats was followed during the 28 to 35 days of a vitamin A-deficient diet. […] In contrast, the control rats as well as those rats which received retinoic acid (Experiment 3) died.

physchem = settings: isotonic buffered saline
Description: The concentration of retinal in the complex was estimated by comparison of the absorbance at the peak of the absorbance spectrum with the absorbance of free retinal in ethanol at 380 nm.

in vitro = settings: mouse, s9
Description: Decreased plating efficiency and cell lysis are considered indications of cytotoxic effects.

S91 melanoma cells = assay: S91 melanoma cell proliferation (growth inhibition); assay type: cell-based; settings: for inhibition at 0.2 µM: Mus musculus, S91, 144 h, read-out: Percentage of growth inhibition
Procedure: Medium was chaged on Day 3. The cells were treated for 6 days

[2] = Direct solubilization of retinoids by cyclodextrins and their derivatives; assay type: physicochemical; settings: read-out: Solubility of retinoid in physiological buffered saline
Description: It has been discovered that by appropriately selecting a derivatized cyclodextrin, it is unnecessary to prepare a retinoid-polymer compound preliminary to, or concurrent with, the preparation of the complex. This greatly simplifies the process of dissolving a retinoid. Thus, to prepare a solution of the cyclodextrin retinoid complex, it is merely necessary to add the components, retinoid and cyclodextrin, with stirring to an aqueous medium, such as a saline or isotonic solution, at room temperature. If one has a suitable cyclodextrin available, it is unnecessary to synthesize the cyclodextrin retinoid-polymer.
Some examples of the solubility obtained for retinoid-dextrin complexes of the present invention in physiologically acceptable solutions are presented in Table 1. It may be noted that while the solubility of a complex of one retinoid with a particular cyclodextrin may not be great, the solubility of a complex of another retinoid, using the same cyclodextrin, may be increased several orders of magnitude.
Solubility of retinoid (μg/ml)
in physiological buffered saline
(NaCl, 8 g/L; Na2 HPO4.7H2 O,
2.2g/L; KCl, 0.2 g/L and […]

vitamin A-deficient rats [3] = assay: Retinol in serum and liver of treated vitamin A-deficient rats (spectrophotometric), resorption studies; parameters: species or system rat (male weanling albino, Holtzman); settings: rat, in vivo, ip
[4] = buffered saline with α-cyclodextrin, α-cyclodextrin, 50 mg/ml
[5] = buffered saline with β-cyclodextrin, β-cyclodextrin, 17 mg/ml
[6] = physiological buffered saline, dodecakis-2,6-O-methyl-α-cyclodextrin, 25 mg/ml
[7] = physiological buffered saline, hexadecakis-2,6-O-methyl-γ-cyclodextrin, 25 mg/ml
[8] = physiological buffered saline, solubilization agent: none
[9] = physiological buffered saline, tetradecakis-2,6-O-methyl-β-cyclodextrin, 50 mg/ml
[10] = physiological buffered saline, γ-cyclodextrin, 50 mg/ml

CC(=O)OC/C=C(C)/C=C/C=C(C)/C=C/C1=C(C)CCCC1(C)C [Retinyl acetate]
No. of surviving animals/total (vitamin A-deficient rats [1]; Experiment 1, 35 days on vitamin A-deficient diet, intraperitoneal): 3/3
No. of surviving animals/total (vitamin A-deficient rats [1]; Experiment 2, 28 days on vitamin A-deficient diet, intraperitoneal): 4/4

CC1=C(/C=C/C(C)=C/C=C/C(C)=C/C=O)C(C)(C)CCC1 [retinal]
solubility (physchem): < 0.01 µg/mL
CC50 (in vitro): 4 µM
MCC (in vitro): ≥ 10 µM
MNTC (in vitro): 2000 nM
growth rate of cells after 48 hours (in words) (S91 melanoma cells; 48 hours, retinal 1 μM, complex 10 μM retinal moiety, FIG. 3, vs untreated controls): reduced in comparison to the untreated controls
growth inhibition, dose dependence (in words) (S91 melanoma cells; 6 days, below 2 μM (retinal) and 40 μM (complex), FIG. 2): dose-dependent inhibition
inhibition at 0.2 µM (S91 melanoma cells; 0.2 μM, 6 days): 28%
inhibition at 0.2 µM (S91 melanoma cells; second retinal line, printed 0.2 μM, 6 days): 52%
relative potency as growth inhibitor (in words) (S91 melanoma cells; all concentrations where retinal is not toxic): more potent inhibitor than the corresponding complex
inhibition of cell proliferation, first 24 hours (in words) (S91 melanoma cells; first 24 hours, retinal 1 μM, complex 10 μM retinal moiety, FIG. 3): no apparent inhibition of cell proliferation
solubility [2, 4]: 4 µg/mL (≈ 14.1 µM)
solubility [2, 5]: 2 µg/mL (≈ 7.03 µM)
solubility [2, 6]: 7 µg/mL (≈ 24.6 µM)
solubility [2, 7]: 4 µg/mL (≈ 14.1 µM)
solubility [2, 8]: < 1 µg/mL
solubility [2, 9]: 570 µg/mL (≈ 2000 µM)
solubility [2, 10]: 1 µg/mL (≈ 3.52 µM)

CC1=C(/C=C/C(C)=C/C=C/C(C)=C/C(=O)O)C(C)(C)CCC1 [retinoic acid]
Serum retinol (in words) (vitamin A-deficient rats [3]): not detectable
solubility [2, 4]: 140 µg/mL (≈ 466 µM)
solubility [2, 5]: 2000 µg/mL (≈ 6660 µM)
solubility [2, 6]: 460 µg/mL (≈ 1530 µM)
solubility [2, 7]: 140 µg/mL (≈ 466 µM)
solubility [2, 8]: 20 µg/mL (≈ 66.6 µM)
solubility [2, 9]: 460 µg/mL (≈ 1530 µM)
solubility [2, 10]: 130 µg/mL (≈ 433 µM)
day of death of animals (vitamin A-deficient rats [1]; Experiment 3, individual animals): 14 days and 28 days and 30 days
No. of surviving animals/total (vitamin A-deficient rats [1]; Experiment 3, 31 days on vitamin A-deficient diet, intraperitoneal): 0/3
survival / vitamin A-like activity (in words) (vitamin A-deficient rats [1]; intraperitoneal, 28 to 35 days of vitamin A-deficient diet): died
